Experimental data from patent US5506262A, “Cholesterol lowering compounds” (Merck & Co., Inc., priority 1993, dated 1996).
Converted amounts (≈) assume the structure as drawn.

Columns and labels:
[1] = molecular target: T1, Farnesyl-protein transferase (Ftase) (Bos taurus, UniProt P29702+P49355); assay: RASIT ASSAY I: inhibition of Ras farnesylation in vitro; format: biochemical, bovine; settings: Ras-CVLS 3.5 μM, 0.25 μM [3H]FPP
T1 construct: Farnesyl-protein transferase (Ftase) from bovine brain was chromatographed on DEAE-Sephacel; from tissue; host or cells: bovine brain, partially purified (DEAE-Sephacel, N-octyl agarose, mono Q)
Protocol: (§1) The intrinsic farnesyl-protein transferase (FTase) activity of representative compounds of this invention was measured by the assays described below:
(§2) Farnesyl-protein transferase (Ftase) from bovine brain was chromatographed on DEAE-Sephacel (Pharmacia, 0-0.8M NaCl gradient elution), N-octyl agarose (Sigma, 0-0.6M Nacl gradient elution), and a mono Q HPLC column (Pharmacia, 0-0.3M NaCl gradient). Ras-CVLS at 3.5 μM, 0.25 μM [^3 H]FPP, and the indicated compounds were incubated with this partially purified enzyme preparation. The Ftase data presented below is a measurement of the ability of the test compound to inhibit Ras farnesylation in vitro.
(§3) Table 8 lists IC50 data which is representative of the intrinsic Ras inhibitory activity of the compounds of this invention. Data of representative compounds from each embodiment and class of the invention is provided. When an inhibitory value is not provided for a given assay, the compound was not tested in that protocol.

[2] = molecular target: T1, Farnesyl-protein transferase (Ftase); assay: RASIT ASSAY II: inhibition of Ras farnesylation in vitro; format: biochemical, bovine; settings: Ras-CVLS 1.0 μM, 0.5 μM [3H]FPP
Protocol: as §1
as §2, with “1.0” for “3.5”, “0.5” for “0.25”
as §3

[3] = tested on: Aspergillus flavus MF383; assay: Antifungal MIC, microtiter dilution assay; format: cell-based; settings: 42 hours, 28° C., read-out: Minimum Inhibitory Concentration
Protocol: (§4) The compounds are particularly active towards filamentous fungi and yeasts including Candida albicans and Cryptococcus neoformans. The sensitivity of filamentous fungi and yeast was determined using inhibitor dilution assays in microtiter format. The compounds were dissolved in DMSO at 2 mg/ml and serially diluted in 0.1M phosphate buffer, pH 7.0 in the microtiter dish from 100 to 0.006 μg/ml. A standardized spore suspension for testing the filamentous fungi was prepared by inoculating Antibiotic Medium #3 containing 1.5% agar with spores such that 1.5×10^3 colony forming units were added per well. The microtiter wells were filled with 50 μl of buffer containing compound and 50 μl of inoculated medium.
(§5) The sensitivity of yeasts was determined by inoculating yeast nitrogen base containing 1% dextrose (YNB/G) with aliquots of an overnight yeast culture grown in Yeast Morphology (YM) media at 35° C. and diluting in YNB/G to yield a final concentration of 1.5-7.5×10^3 colony forming units/well. To test the sensitivity of yeast, compound was solubilized in 10 percent aqueous DMSO at 2.56 mg/ml. The compound was diluted serially in YNB/G from 128 to 0.06 μg/ml and further diluted 1:10 in YNB/G. The wells were filled with 150 μl of media containing drug. […] Representative of the antifungal activity are the minimum inhibitory concentration data shown below for representative compounds from the various embodiments and classes described hereinabove.

[4] = tested on: C. parapsilosis MY1010; assay: Antifungal MIC, microtiter dilution assay; format: cell-based; settings: Lodderomyces parapsilosis, 24 to 48 hours, 35° C., read-out: Minimum Inhibitory Concentration
Protocol: as §4, §5

[5] = tested on: C. tropicalis MY1012; assay: Antifungal MIC, microtiter dilution assay; format: cell-based; settings: Candida tropicalis, 24 to 48 hours, 35° C., read-out: Minimum Inhibitory Concentration
Protocol: as §4, §5

[6] = tested on: Candida albicans MY1055; assay: Antifungal MIC, microtiter dilution assay; format: cell-based; settings: 24 to 48 hours, 35° C., read-out: Minimum Inhibitory Concentration
Protocol: as §4, §5

[7] = tested on: Crypt. neoformans MY1051; assay: Antifungal MIC, microtiter dilution assay; format: cell-based; settings: Cryptococcus neoformans, 24 to 48 hours, 35° C., read-out: Minimum Inhibitory Concentration
Protocol: as §4, §5

`C=C(CC[C@]12O[C@H](C(=O)O)[C@@](O)(C(=O)O)[C@](C(=O)O)(O1)[C@H](OC(=O)NCCCCCCCCCCCOc1ccccc1)[C@H]2O)[C@@H](OC(C)=O)[C@H](C)Cc1ccccc1` [Compound 5u] gave an IC50 [1] of 500 nM and an IC50 [2] of 27 nM.
In the case of `CC[C@H](C)C[C@H](C)CCC(=O)O[C@@H]1[C@@H](O)[C@@]2(CCC(C)C[C@H](C)Cc3ccccc3)O[C@H](C(=O)O)[C@@](O)(C(=O)O)[C@]1(C(=O)O)O2` (stereo partly drawn) [Compound 25b, (1S,3S,4S, 5R,6R,7R)-1-[3,5(R)-dimethyl-6-phenyl]hexyl-4,6,7trihydroxy-6-O-(4(S),6(S)-dimethyl-2-octanoyl)-2,8-dioxabicyclo[3.2.1]octane-3,4,5-tricarboxylic acid], the MIC [3] is reported as 4 µg/mL (≈ 6.28 µM), the MIC [4] is reported as > 128 µg/mL and the MIC [5] is reported as 8 µg/mL (≈ 12.6 µM). For the same compound, the MIC [6] was 8 µg/mL (≈ 12.6 µM) and the MIC [7] was 2 µg/mL (≈ 3.14 µM).
`C=C(CC[C@]12O[C@H](C(=O)O)[C@@](O)(C(=O)O)[C@](C(=O)O)(O1)[C@H](OC(=O)/C=C/[C@@H](C)C[C@@H](C)CC)[C@H]2OC)[C@@H](OC(C)=O)[C@H](C)Cc1ccccc1` [5n'] gave an IC50 [1] of 4000 nM, an MIC [3] of 4 µg/mL (≈ 5.68 µM) and an MIC [4] of 16 µg/mL (≈ 22.7 µM). The MIC [5] was 1 µg/mL (≈ 1.42 µM), the MIC [6] was 4 µg/mL (≈ 5.68 µM) and the MIC [7] was 1 µg/mL (≈ 1.42 µM).
`C=C(CC[C@]12O[C@H](C(=O)Nc3ccncn3)[C@@](O)(C(=O)O)[C@](C(=O)O)(O1)[C@H](OC(=O)/C=C/[C@@H](C)C[C@@H](C)CC)[C@H]2O)[C@@H](OC(C)=O)[C@H](C)Cc1ccccc1` [Compound 12n, IA-3-(4-amidopyrimidine)] showed an MIC [3] of 2 µg/mL (≈ 2.6 µM), an MIC [4] of 32 µg/mL (≈ 41.7 µM) and an MIC [5] of 8 µg/mL (≈ 10.4 µM). It also gave an MIC [6] of 16 µg/mL (≈ 20.8 µM) and an MIC [7] of 0.25 µg/mL (≈ 0.326 µM).
Work on `CC[C@H](C)C[C@H](C)/C=C/C(=O)O[C@@H]1[C@@H](O)[C@@]2(CCCOC(=O)CCCc3ccccc3)O[C@H](C(=O)O)[C@@](O)(C(=O)O)[C@]1(C(=O)O)O2` [Compound 39e, 39-4-phenylbutyrate ester] yielded an IC50 [1] of 120 nM and an IC50 [2] of 19 nM.
`C=C(CC[C@]12O[C@H](C(=O)O)[C@@](O)(C(=O)O)[C@](C(=O)O)(O1)[C@H](OC(=O)/C=C/[C@@H](C)C[C@@H](C)CC)[C@H]2O)[C@@H](OC(=O)c1ccccc1)[C@H](C)Cc1ccccc1` [Compound 7d] was tested, and the IC50 [1] was 1700 nM and the IC50 [2] was 52 nM.
`C=C(CC[C@]12O[C@H](C(=O)O)[C@@](O)(C(=O)O)[C@](C(=O)O)(O1)[C@H](OCCCCCCCCCCOc1ccc(OC)c(OC)c1)[C@H]2O)[C@@H](OC(C)=O)[C@H](C)Cc1ccccc1` [5q"'] gave an MIC [3] of 1 µg/mL (≈ 1.2 µM), an MIC [4] of 1 µg/mL (≈ 1.2 µM) and an MIC [5] of 128 µg/mL (≈ 154 µM). For the same compound, the MIC [6] was 8 µg/mL (≈ 9.63 µM) and the MIC [7] was 0.25 µg/mL (≈ 0.301 µM).
With `C=C(CC[C@]12O[C@H](C(=O)O)[C@@](O)(C(=O)O)[C@](C(=O)O)(O1)[C@H](OC(=O)Nc1ccc(-c3ccccc3)cc1)[C@H]2O)[C@@H](OC(C)=O)[C@H](C)Cc1ccccc1` [Compound 5t] the MIC [3] was 0.5 µg/mL (≈ 0.681 µM), the MIC [4] was > 128 µg/mL and the MIC [5] was 0.5 µg/mL (≈ 0.681 µM). For the same compound, the MIC [6] was 8 µg/mL (≈ 10.9 µM) and the MIC [7] was > 128 µg/mL.
In the case of `C=C(CC[C@]12O[C@H](C(=O)O)[C@@](O)(C(=O)O)[C@](C(=O)O)(O1)[C@H](OC(=O)NCc1ccccc1)[C@H]2O)[C@@H](OC(C)=O)[C@H](C)Cc1ccccc1` [Compound 5s], the MIC [4] is reported as > 128 µg/mL, the MIC [5] is reported as > 128 µg/mL and the MIC [6] is reported as 1 µg/mL (≈ 1.49 µM). The MIC [7] was 32 µg/mL (≈ 47.6 µM).
Compound `CC[C@H](C)C[C@H](C)CCC(=O)O[C@@H]1[C@@H](O)[C@@]2(CCC(C)[C@@H](OC(C)=O)[C@H](C)Cc3ccccc3)O[C@H](C(=O)O)[C@@](O)(C(=O)O)[C@]1(C(=O)O)O2` (stereo partly drawn) [Compound 24b, (1S,3S,4S,5R,6R,7R)-1-[(4S)-acetoxy-3,5(R)-dimethyl-6-phenyl]hexyl-4,6,7-trihydroxy-6-O-(4(S),6(S)-dimethyl-2-octanoyl)-2,8-dioxabicyclo-[3,2,1]octane-3,4,5-tricarboxylic acid] has an IC50 [1] of 1300 nM.
`C=C(CC[C@]12O[C@H](C(=O)O)[C@@](O)(C(=O)O)[C@](C(=O)O)(O1)[C@H](OC(=O)OCCCCCCCCCCCOc1ccccc1)[C@H]2O)[C@@H](OC(C)=O)[C@H](C)Cc1ccccc1` [Compound 5y] showed an IC50 [1] of 500 nM and an IC50 [2] of 27 nM.
Work on `C=C(CC[C@]12O[C@H](C(=O)O)[C@@](O)(C(=O)O)[C@](C(=O)O)(O1)[C@H](OC(=O)/C=C/[C@@H](C)C[C@@H](C)CC)[C@H]2O)[C@@H](OC(=O)CCC)[C@H](C)Cc1ccccc1` [Compound 7b, IA-Cl(4')-Butanoyl tri-acid] yielded an MIC [3] of 2 µg/mL (≈ 2.78 µM), an MIC [4] of 2 µg/mL (≈ 2.78 µM) and an MIC [5] of 2 µg/mL (≈ 2.78 µM). For the same compound, the MIC [6] was 2 µg/mL (≈ 2.78 µM) and the MIC [7] was 0.5 µg/mL (≈ 0.696 µM).
`C=C(CC[C@]12O[C@H](C(N)=O)[C@@](O)(C(=O)O)[C@](C(=O)O)(O1)[C@H](OC(=O)/C=C/[C@@H](C)C[C@@H](C)CC)[C@H]2O)[C@@H](OC(C)=O)[C@H](C)Cc1ccccc1` [Compound 12a, IA-3-carboxamide] showed an MIC [3] of 2 µg/mL (≈ 2.9 µM), an MIC [4] of 8 µg/mL (≈ 11.6 µM) and an MIC [5] of 2 µg/mL (≈ 2.9 µM). The MIC [6] was 8 µg/mL (≈ 11.6 µM) and the MIC [7] was 1 µg/mL (≈ 1.45 µM).
